The record followed here is US7612084B2, “Amine derivatives for the treatment of asthma and COPD” (Pfizer Inc, priority 2006, dated 2009).

As a reminder, the Ki is the dissociation constant of the complex between target and ligand, obtained from inhibition or displacement. A lower Ki goes with a stronger hold on the target. By EC50 is commonly meant the concentration at which the effect is half-maximal.

Experiment [1] deals with human muscarinic M3 receptor (Homo sapiens, UniProt P20309). The experiment can be described thus: Whole cell β-lactamase reporter assay in CHO cells expressing the hM3 receptor (antagonist activity). In kind it is cell-based. Conditions: 80 nM carbamyl choline, IC50 converted to Ki by Cheng-Prusoff. As to the method: Functional Assessment of Antagonist Activity Using a Whole Cell β-Lactamase Reporter Assay in CHO Cells Expressing the hM3 Receptor.
human muscarinic M3 receptor, sequence (P20309 whole entry): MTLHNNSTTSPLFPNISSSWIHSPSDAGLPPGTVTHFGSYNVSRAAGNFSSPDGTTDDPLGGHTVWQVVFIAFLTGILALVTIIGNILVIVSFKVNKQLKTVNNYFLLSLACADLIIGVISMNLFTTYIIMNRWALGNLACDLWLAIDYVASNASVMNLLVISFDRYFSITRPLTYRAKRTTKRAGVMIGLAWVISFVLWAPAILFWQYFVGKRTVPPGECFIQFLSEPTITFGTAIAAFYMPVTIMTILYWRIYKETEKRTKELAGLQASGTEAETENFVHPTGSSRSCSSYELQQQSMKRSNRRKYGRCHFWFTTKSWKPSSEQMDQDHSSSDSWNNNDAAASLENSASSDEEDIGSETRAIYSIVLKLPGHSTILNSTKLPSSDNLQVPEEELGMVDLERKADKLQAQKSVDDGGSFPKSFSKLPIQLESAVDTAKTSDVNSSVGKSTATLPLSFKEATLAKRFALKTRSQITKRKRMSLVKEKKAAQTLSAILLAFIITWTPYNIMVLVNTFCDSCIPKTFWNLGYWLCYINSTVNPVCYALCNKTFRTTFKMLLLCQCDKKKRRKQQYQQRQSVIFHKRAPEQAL
CHO (Chinese Hamster Ovary) cells recombinantly expressing the human muscarinic M3 receptor were transfected with the NFAT_β-Lac_Zeo plasmid. Cells were grown in DMEM with Glutamax-1, supplemented with 25 mM HEPES(Life Technologies 32430-027), containing 10% FCS (Foetal Calf Serum; Sigma F-7524), […] Sodium pyruvate (Sigma S-8636), NEAA (non-Essential Amino Acids; Invitrogen 11140-035) and […] Zeocin (Invitrogen R250-01).
Cells were harvested for assay when they reached 80-90% confluency using enzyme free cell Dissociation Solution (Life technologies 13151-014) incubated with the cells for 5 min at 37° C. in an atmosphere containing 5% CO2. Detached cells were collected in warmed growth media and centrifuged at 200 rpm for 10 min, washed in PBS (Phosphate Buffered Saline; Life Technologies 14190-094) and centrifuged again as just described. The cells were re-suspended at 2×10^5 cells/ml in growth medium (composition as described above). 20 μl of this cell suspension was added to each well of a 384 well black clear bottomed plate (Greiner Bio One 781091-PFI). The assay buffer used was PBS supplemented with 0.05% Pluronic F-127 (Sigma 9003-11-6) and 2.5% DMSO. Muscarinic M3 receptor signalling was stimulated using 80 nM carbamyl choline (Aldrich N240-9) incubated with the cells for 4 h at 37° C./5% CO2 and monitored at the end of the incubation period using a Tecan SpectraFluor+plate reader (λ−excitation 405 nm, emission 450 nm and 503 nm). Compounds under test were added to the assay at the beginning of the 4 h incubation period and compound activity measured as the concentration dependent inhibition of the carbamyl choline induced signal. Inhibition curves were plotted and IC50 values generated using a 4-parameter sigmoid fit and converted to Ki values using the Cheng-Prusoff correction and the KD value for carbamyl choline in the assay.
For orientation: Reporter assays use an easily measured gene product as a stand-in for the process of interest.

In experiment [2] the target is human adrenergic B2 receptor (Homo sapiens, UniProt P07550). Put plainly: Whole cell luciferase reporter assay in CHO cells expressing the hB2 receptor (agonist potency). In kind it is cell-based. The settings on record: 4 h incubation, read-out: EC50 - beta2. The method, then: Functional Assessment of Agonist Potency and Efficacy Using a Whole Cell Luciferase Reporter Assay in CHO Cells Expressing the hB2 Receptor.
human adrenergic B2 receptor, sequence (P07550 whole entry): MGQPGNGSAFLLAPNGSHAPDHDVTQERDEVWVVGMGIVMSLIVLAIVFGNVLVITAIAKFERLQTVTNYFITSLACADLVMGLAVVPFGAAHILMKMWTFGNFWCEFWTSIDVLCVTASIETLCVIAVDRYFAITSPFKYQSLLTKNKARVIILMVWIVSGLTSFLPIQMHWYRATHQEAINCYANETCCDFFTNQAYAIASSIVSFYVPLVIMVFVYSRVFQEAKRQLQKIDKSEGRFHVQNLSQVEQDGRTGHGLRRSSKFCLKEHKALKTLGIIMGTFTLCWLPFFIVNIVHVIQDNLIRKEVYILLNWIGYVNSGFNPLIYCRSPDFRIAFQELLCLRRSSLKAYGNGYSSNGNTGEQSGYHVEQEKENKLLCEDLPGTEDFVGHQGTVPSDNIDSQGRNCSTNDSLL
CHO (Chinese Hamster Ovary) cells recombinantly expressing the human adrenergic B2 receptor and transfected with a luciferase enzyme reporter gene were maintained in growth media composed of F12:DMEM (Sigma D6421) containing 10% Foetal Bovine Serum (FBS: Sigma F03921) 10 μg/ml puromycin (Sigma N277698), 0.5 mg/ml Geneticin G418 (Sigma G7034) and 2 mM L-glutamine (Sigma G7513). The cells were kept in sterile conditions at 37° C., in an atmosphere containing 5% CO2.
hB2 Luciferase Assay Protocol
Cells were harvested for assay when they reached 80-90% confluency using enzyme free cell Dissociation Solution (Life technologies 13151-014) incubated with the cells for 5 min at 37° C. in an atmosphere containing 5% CO2. Detached cells were collected in warmed growth media (composition described above), and re-suspended in assay media (F12:DMEM (Sigma D6421) containing 1% Foetal Bovine Serum (FBS: Sigma F03921), 10 μg/ml puromycin (Sigma N277698), 0.5 mg/ml Geneticin G418 (Sigma G7034) and 2 mM L-glutamine (Sigma G7513))to give a viable cell concentration of 1×10^6 cells/ml. 10 ul of this suspension was added to each well of a tissue culture treated low volume 384 well plate (Greiner788073) and the plate incubated in an atmosphere containing 5% CO2 at 37° C. for 2 h. Concentration ranges of test compounds were prepared in phosphate Buffered Saline containing 0.05% pluronic-F127 (Sigma P2443) and 2.5% DMSO. 2 μl of each test concentration were added to the appropriate 384 plate well and returned to the incubator for a further 4 h. At the end of the incubation period 4 μl of Steady-Glo reagent (Steady-Glo Luciferase assay system (Promega E2520) was added to each well and the plate read immediately in a Leadseeker Plate reader (Amersham Bioscience) using a 660 nm filter. Concentration effect curves were plotted and EC50 values generated using a 4-parameter sigmoid fit using an in-house data analysis programme. Isoprenaline was run in every assay as a reference standard.

In turn, `CC(C)N(CC[C@H](c1ccccc1)c1cc(CCCCOc2ccc(CCNC[C@H](O)c3cc(O)cc(O)c3)cc2)ccc1O)C(C)C` [Example 9] came in with a Ki in experiment [1] of 1.1 nM. Further, the concentration for a half-maximal effect (EC50) in experiment [2] was determined as 4.8 nM.

Consider `CC(C)N(CC[C@H](c1ccccc1)c1cc(CCOc2ccc(CCNC[C@H](O)c3ccc(O)c4[nH]c(=O)ccc34)cc2)ccc1O)C(C)C` [Example 14, 5-[(1R)-2-({2-[4-(2-{3-[(1R)-3-(diisopropylamino)-1-phenylpropyl]-4-hydroxyphenyl}ethoxy)phenyl]ethyl}amino)-1-hydroxyethyl]-8-hydroxyquinolin-2(1H)-one], for which, in experiment [1], the affinity corresponds to a Ki of 0.76 nM. In experiment [2], the EC50 is 0.054 nM.

For the compound `CC(C)N(CC[C@H](c1ccccc1)c1cc(CCOc2cccc(CCNC[C@H](O)c3ccc(O)c(CO)c3)c2)ccc1O)C(C)C` [Example 11, 2-[(1R)-3-(diisopropylamino)-1-phenylpropyl]-4-(2-{3-[2-({(2R)-2-hydroxy-2-[4-hydroxy-3-(hydroxymethyl)phenyl]ethyl}amino)ethyl]phenoxy}ethyl)phenol], the inhibition constant (Ki) in experiment [1] worked out at 1.5 nM. The EC50 in experiment [2] came to 2.2 nM.
